Measured values reported in patent publication US20250353873A1, “COMPOUNDS AND METHODS FOR MODULATING APOE EXPRESSION” (Ionis Pharmaceuticals, Inc., priority 2024, published 2025).
Strand notation (5' to 3'): a small letter for the sugar, then the base; units joined by * are phosphorothioate-linked, units joined directly phosphodiester-linked; [ ] holds rarer units or linkages, { } end groups; capitals alone tell only the bases. [ms] = mesyl phosphoramidate linkage; e = 2'-O-(2-methoxyethyl) (MOE); k = constrained ethyl (cEt); [5mC] = 5-methylcytosine; d = 2'-deoxy (DNA)

Key:
human APOE RNA [1] = test: Activity in APOE C57BL/6NTac-Apoeem7250 knock-in mice, single ICV bolus, 8 weeks (Example 11); assay type: in vivo; conditions: single ICV bolus 300 μg, 8 weeks post treatment, normalized to mouse Ppia
Summary of the method: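 Cortical and spinal cord human APOE RNA quantified by RT-qPCR 8 weeks after a single 300 μg ICV dose in knock-in mice, Ppia-normalized. Values are percent of levels in PBS-treated animals.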

human APOE RNA [2] = test: Activity in APOE C57BL/6NTac-Apoeem7250 knock-in mice, single ICV bolus, 4 weeks (Example 10); assay type: in vivo; conditions: single ICV bolus 300 μg, 4 weeks post treatment, normalized to mouse Ppia
Summary of the method: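 Human APOE RNA, quantified by real-time RT-PCR with RTS3073 and normalized to mouse Ppia, was read in cortical brain and spinal cord 4 weeks post dosing. Dosing was a single ICV bolus of 300 μg per knock-in mouse; values are % of PBS-treated animals.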

human APOE RNA [3] = test: Activity in APOE C57BL/6NTac-Apoeem7250 knock-in mice, single ICV bolus, 20 weeks (Example 13); assay type: in vivo; conditions: single ICV bolus 300 μg, 20 weeks post treatment, normalized to mouse Ppia
Summary of the method: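 Cortical and spinal cord RNA was assayed by real-time RT-PCR for human APOE, normalized to mouse Ppia and reported as percent of PBS controls. Tissue was taken twenty weeks after one 300 μg intracerebroventricular bolus in APOE knock-in mice, 4 per group.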

human APOE RNA [4] = test: Dose-dependent inhibition of human APOE RNA in HepG2 cells, electroporation, 50,000 cells per well, RT-PCR normalized to GAPDH (Example 4, Tables 8-10); assay type: cell-based
Summary of the method: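 Readout is percent APOE RNA versus untreated controls, measured by RT-PCR (primer probe set RTS3073) and normalized to human GAPDH. Modified oligonucleotides were delivered by electroporation at varying doses into HepG2 cells plated at 50,000 per well.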

human APOE RNA [5] = test: Activity in APOE C57BL/6NTac-Apoeem7250 knock-in mice, single ICV bolus, 16 weeks (Example 12); assay type: in vivo; conditions: single ICV bolus 300 μg, 16 weeks post treatment, normalized to mouse Ppia
Summary of the method: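 A single 300 μg intracerebroventricular dose was given, with PBS-treated mice as reference; cortical and spinal cord tissue was taken 16 weeks later. RT-qPCR quantified human APOE RNA, Ppia-normalized, expressed relative to PBS animals (% control).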

human APOE RNA [6] = test: Dose-dependent inhibition of human APOE RNA in differentiated SH-SY5Y cells, free uptake, 5 days (Example 5); assay type: cell-based; conditions: 5 days (Table 14)
Summary of the method: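 APOE RNA, measured by RTS3073 primer probe set and normalized to human PPIA, is reported as % of untreated control cells, with IC50 fitted. Cells were differentiated SH-SY5Y at 10,000/well, given modified oligonucleotide at several concentrations by free uptake for 5 days.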

Substance | APOE RNA (% control) Cortex (human APOE RNA [1]) | APOE RNA (% control) Spinal Cord (human APOE RNA [1]) | APOE RNA (% control) Cortex (human APOE RNA [2]) | APOE RNA (% control) Spinal Cord (human APOE RNA [2]) | APOE RNA (% control) Cortex (human APOE RNA [3]) | APOE RNA (% control) Spinal Cord (human APOE RNA [3]) | APOE RNA (% control) Cortex (human APOE RNA [5]) | APOE RNA (% control) Spinal Cord (human APOE RNA [5]) | APOE RNA (% UTC) (human APOE RNA [6]; 5 nM) | APOE RNA (% UTC) (human APOE RNA [6]; 13 nM) | APOE RNA (% UTC) (human APOE RNA [6]; 33 nM) | APOE RNA (% UTC) (human APOE RNA [6]; 82 nM) | APOE RNA (% UTC) (human APOE RNA [6]; 205 nM) | APOE RNA (% UTC) (human APOE RNA [6]; 512 nM) | APOE RNA (% UTC) (human APOE RNA [6]; 1,280 nM) | APOE RNA (% UTC) (human APOE RNA [6]; 3,200 nM) | APOE RNA (% UTC) (human APOE RNA [6]; 8,000 nM) | APOE RNA (% UTC) (human APOE RNA [6]; 20,000 nM) | IC50 (human APOE RNA [6]) | further results
1785617: modified oligonucleotide complementary to human APOE RNA (k[5mC]*dT[ms]dT[ms]kG*dG[ms]kT*dG[ms]dA[ms]dA[ms]dT[ms]d[5mC]*dT*dT*dT*dA*dT*kT*kA*dA[ms]kA; antisense) [compound 1785617] | 30 % control | 213 % control | 39 % control | 38 % control | 61 % control | 38 % control | 37 % control | 28 % control | 118 % UTC | 116 % UTC | 84 % UTC | 71 % UTC | 59 % UTC | 56 % UTC | 29 % UTC | 21 % UTC | 22 % UTC | 10 % UTC | 520 nM | APOE RNA (% UTC) 5 nM (human APOE RNA [4]; HepG2 cells, electroporation, 24-hour treatment, 5 nM, Table 8): 91 % UTC; APOE RNA (% UTC) 13 nM (human APOE RNA [4]; HepG2 cells, electroporation, 24-hour treatment, 13 nM, Table 8): 104 % UTC; APOE RNA (% UTC) 33 nM (human APOE RNA [4]; HepG2 cells, electroporation, 24-hour treatment, 33 nM, Table 8): 93 % UTC; APOE RNA (% UTC) 82 nM (human APOE RNA [4]; HepG2 cells, electroporation, 24-hour treatment, 82 nM, Table 8): 83 % UTC; APOE RNA (% UTC) 205 nM (human APOE RNA [4]; HepG2 cells, electroporation, 24-hour treatment, 205 nM, Table 8): 93 % UTC; APOE RNA (% UTC) 512 nM (human APOE RNA [4]; HepG2 cells, electroporation, 24-hour treatment, 512 nM, Table 8): 50 % UTC; APOE RNA (% UTC) 1,280 nM (human APOE RNA [4]; HepG2 cells, electroporation, 24-hour treatment, 1,280 nM, Table 8): 47 % UTC; APOE RNA (% UTC) 3,200 nM (human APOE RNA [4]; HepG2 cells, electroporation, 24-hour treatment, 3,200 nM, Table 8): 18 % UTC; APOE RNA (% UTC) 8,000 nM (human APOE RNA [4]; HepG2 cells, electroporation, 24-hour treatment, 8,000 nM, Table 8): 27 % UTC; APOE RNA (% UTC) 20,000 nM (human APOE RNA [4]; HepG2 cells, electroporation, 24-hour treatment, 20,000 nM, Table 8): 11 % UTC; IC50 (human APOE RNA [4]; reduction of human APOE RNA, HepG2 cells, electroporation, 24-hour treatment, Table 8): 950 nM
1757575 (eA*e[5mC]eTeT*kG*kG*dT*dG[ms]dA[ms]dA[ms]dT*d[5mC]*dT*dT*dT*dA[ms]kT*eT*eA*eA; antisense) [Compound 1757575] | 35 % control | 32 % control | 38 % control | 27 % control | 39 % control | 88 % control | 33 % control | 21 % control | 44 % UTC | 56 % UTC | 39 % UTC | 50 % UTC | 34 % UTC | 30 % UTC | 26 % UTC | 23 % UTC | 12 % UTC | 11 % UTC | 10 nM | APOE RNA (% UTC) (human APOE RNA [4]; 5 nM, HepG2, electroporation, 16-hour treatment): 84 % UTC; APOE RNA (% UTC) (human APOE RNA [4]; 13 nM, HepG2, electroporation, 16-hour treatment): 80 % UTC; APOE RNA (% UTC) (human APOE RNA [4]; 33 nM, HepG2, electroporation, 16-hour treatment): 87 % UTC; APOE RNA (% UTC) (human APOE RNA [4]; 82 nM, HepG2, electroporation, 16-hour treatment): 78 % UTC; APOE RNA (% UTC) (human APOE RNA [4]; 205 nM, HepG2, electroporation, 16-hour treatment): 81 % UTC; APOE RNA (% UTC) (human APOE RNA [4]; 512 nM, HepG2, electroporation, 16-hour treatment): 51 % UTC; APOE RNA (% UTC) (human APOE RNA [4]; 1,280 nM, HepG2, electroporation, 16-hour treatment): 44 % UTC; APOE RNA (% UTC) (human APOE RNA [4]; 3,200 nM, HepG2, electroporation, 16-hour treatment): 37 % UTC; APOE RNA (% UTC) (human APOE RNA [4]; 8,000 nM, HepG2, electroporation, 16-hour treatment): 25 % UTC; APOE RNA (% UTC) (human APOE RNA [4]; 20,000 nM, HepG2, electroporation, 16-hour treatment): 15 % UTC; IC50 (human APOE RNA [4]; HepG2, electroporation, 16-hour treatment): 940 nM
